Measured values as given in PMC12587574, “Mass balance, pharmacokinetics, metabolism, and excretion of radiolabeled acoziborole, a potential novel treatment for human African trypanosomiasis, following single microtracer oral dose to humans” (Antimicrobial Agents and Chemotherapy, 2025).
Like-named read-outs stand apart in the source and are kept apart here.

Columns and labels:
CYP3A4 = molecular target: T1, CYP3A4 (Homo sapiens, UniProt P08684); test: Incubation with CYP450 recombinant enzymes (Bactosomes) and NADPH; type: in vitro ADME; conditions: 1 µM
T1 construct: purchased
T1 sequence (P08684 whole entry): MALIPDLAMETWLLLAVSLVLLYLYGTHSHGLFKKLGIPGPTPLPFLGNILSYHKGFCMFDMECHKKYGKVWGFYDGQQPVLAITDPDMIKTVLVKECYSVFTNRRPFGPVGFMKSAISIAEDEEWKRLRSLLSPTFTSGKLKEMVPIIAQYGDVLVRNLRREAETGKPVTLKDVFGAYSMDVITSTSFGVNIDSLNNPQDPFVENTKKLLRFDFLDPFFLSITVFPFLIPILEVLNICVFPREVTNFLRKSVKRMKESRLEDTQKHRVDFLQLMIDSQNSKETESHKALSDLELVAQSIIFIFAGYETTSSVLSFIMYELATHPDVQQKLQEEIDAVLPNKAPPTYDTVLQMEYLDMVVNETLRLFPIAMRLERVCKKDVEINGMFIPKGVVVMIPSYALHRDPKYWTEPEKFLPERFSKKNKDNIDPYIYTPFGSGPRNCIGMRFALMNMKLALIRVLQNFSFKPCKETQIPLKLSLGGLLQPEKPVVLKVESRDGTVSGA

T.b. gambiense = test system: T.b. gambiense; set-up: method as in PMID 21738803; conditions: oral 5–25 mg/kg/day; acute and chronic infection; cited from earlier work
MDCK-MDR1 cell monolayer = conditions: cited from earlier work
[1] = Distribution study of [14C]-acoziborole in Sprague-Dawley rats; type: in vivo; conditions: 10 mg/kg (200 µCi/kg)
[2] = Plasma pharmacokinetics of acoziborole and SCYX-3109 by LC-MS/MS, phase I mass balance study; type: in vivo, human
Description: This single-center, open-label, single group, non-randomized, single oral dose study was performed at Quotient Sciences Ltd (Ruddington, Nottingham, UK). Clinical trial authorization was obtained from the Medicines and Healthcare Products Regulatory Agency (UK). Approval for administration of [^14C]-acoziborole was obtained from an expert committee sponsored by the Department of Health and Social Care in the United Kingdom (Administration of Radioactive Substances Advisory Committee [ARSAC]), and from the ARSAC-accredited Quotient Sciences’ nuclear medicine practitioner. This study was approved by a local research ethics committee in the United Kingdom and was conducted in compliance with the Declaration of Helsinki and the International Conference on Harmonisation E6 Guideline for Good Clinical Practice. The study was registered in clinicaltrials.gov (NCT04270981) and in EudraCT (reference 2019-004059-35). Written informed consent was obtained from all participants before undertaking any study-related procedures.
Participants were admitted in the evening of the day before dosing (Day −1) and were dosed in the morning of Day 1, following an overnight fast from food and drink of a minimum of 9 h. They remained fasted until approximately 4 h post-dose, at which time lunch was provided. Participants remained resident in the clinic until up to 240 h after dosing (up to Day 11). […] However, due to the COVID-19 pandemic, instead of returning for the outpatient visits, participants were requested to perform home collection of feces for a 48-h period (i.e., Days 31–33, Days 59–61, Days 89–91, and Days 119–121). Collected samples were couriered to the clinical unit at the end of each collection period. A follow-up call took place 5–10 days after the final outpatient visit to ensure the well-being of participants.
Venous blood samples were collected via an indwelling cannula or by venepuncture. A 12 mL sample was taken into heparinized glass tube and chilled on ice immediately before IP administration and 3 mL samples were taken at 1, 4, 9, 12, 24, 48, 72, 96, 120, 144, 168, and 240 h and on Days 15, 31, 59, 89, and 119 after IP administration. The first 0.5 mL of blood withdrawn via cannula was discarded. One aliquot of heparinized whole blood (1 mL) per time point was stored at or below −20°C for total radioactivity analysis. The remaining blood was centrifuged, and the harvested plasma was stored at approximately −20°C for bioanalysis or transferred (exactly 1 mL) into polypropylene tubes pre-filled with 5 µL formic acid. One plasma sample (0.5 mL) was used for metabolite profiling while another (0.5 mL) was used for parent drug and SCYX-3109 metabolite analysis. The remaining plasma was used for total radioactivity analysis.
SGS Belgium (Wavre, Belgium) performed the analysis to determine acoziborole and SCYX-3109 concentrations, using validated bioanalytical assays with liquid chromatography with tandem mass spectrometry (LC-MS/MS) with a Supelco Ascentis Express C8, 2.7 µm, 50 × 2.1 mm I.D. separation column. In plasma, the lower limit of quantification (LLOQ) was 25 ng/mL for acoziborole and 10 ng/mL for SCYX-3109. In urine, the LLOQ was 10 ng/mL for both acoziborole and SCYX-3109.
PK parameters were calculated based on actual sampling times using standard non-compartmental analysis and WinNonlin version 8.1 software (Certara, Princeton, NJ, USA).
The SCYX-3109 to parent ratios were calculated based on Cmax and AUC0–∞.

CYP2C8 = molecular target: T2, CYP2C8 (Homo sapiens, UniProt P10632); test: Incubation with CYP450 recombinant enzymes (Bactosomes) and NADPH; type: in vitro ADME; conditions: 1 µM
T2 construct: purchased
T2 sequence (P10632 1-490): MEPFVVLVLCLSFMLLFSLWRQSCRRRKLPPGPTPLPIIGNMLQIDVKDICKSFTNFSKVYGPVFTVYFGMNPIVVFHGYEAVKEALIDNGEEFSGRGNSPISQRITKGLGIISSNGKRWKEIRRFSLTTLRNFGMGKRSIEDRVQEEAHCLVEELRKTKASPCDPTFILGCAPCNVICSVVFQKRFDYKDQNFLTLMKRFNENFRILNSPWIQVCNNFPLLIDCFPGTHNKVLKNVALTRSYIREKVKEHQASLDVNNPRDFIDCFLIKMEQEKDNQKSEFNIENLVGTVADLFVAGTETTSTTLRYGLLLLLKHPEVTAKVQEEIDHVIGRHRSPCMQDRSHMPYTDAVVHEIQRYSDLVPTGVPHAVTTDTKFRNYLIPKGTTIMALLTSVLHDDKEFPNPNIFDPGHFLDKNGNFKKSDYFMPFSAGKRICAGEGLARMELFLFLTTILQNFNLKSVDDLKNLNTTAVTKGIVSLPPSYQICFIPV

gambiense HAT infection = test system: gambiense HAT infection; set-up: method as in PMID 36460027; conditions: single oral 960 mg, fasting, cited from earlier work

Question: For `CC1(C)OB(O)c2cc(NC(=O)c3ccc(F)cc3C(F)(F)F)ccc21` [acoziborole], which “metabolism by recombinant CYP3A4” value (CYP3A4) is on record?
Answer: Its value is “metabolized by”.

Question: And the “effect on survival of infected mice” value (T.b. gambiense)?
Answer: The value was “significantly prolong survival”.

Question: What about the “outcome of oral treatment in infected mice” value (T.b. gambiense) of the same compound?
Answer: The value was “curative”.

Question: And the apparent permeability (MDCK-MDR1 cell monolayer)?
Answer: The apparent permeability was 77.6 ×10⁻⁶ cm/s.

Question: And the “radioactivity collected in feces during 7 days, share of total radioactivity” value ([1]; female rats)?
Answer: Its value is over 73%.

Question: What about the “radioactivity in combined feces and urine during 7 days, share of total radioactivity” value ([1]; female rats) of the same compound?
Answer: The value was over 86%.

Question: And the “radioactivity collected in feces during 7 days, share of total radioactivity” value ([1]; male rats)?
Answer: The value was “over 66%”.

Question: What about the “radioactivity in combined feces and urine during 7 days, share of total radioactivity” value ([1]; male rats) of the same compound?
Answer: Its value is “over 85%”.

Question: And the “mean t1/2 ratio of acoziborole to total radioactivity in blood” value ([2]; 960 mg single oral dose)?
Answer: The value was 1.1.

Question: What about the “mean t1/2 ratio of acoziborole to total radioactivity in plasma” value ([2]; 960 mg single oral dose) of the same compound?
Answer: Its value is 1.0.

Question: And the “share of the radioactivity in plasma, based on AUC0–240h and AUC0–∞ ratios of acoziborole to total radioactivity” value ([2]; 960 mg single oral dose)?
Answer: The value was about 100%.

Question: And the t1/2 in plasma ([2]; 960 mg single oral dose of acoziborole, N = 6, mean ± SD)?
Answer: The t1/2 in plasma was 272.1 ± 36.3 h.

Question: And the “CL/F (apparent total body clearance)” value ([2]; 960 mg single oral dose, plasma, N = 6, mean ± SD)?
Answer: The value was 0.2 ± 0.0 L/h.

Question: What about the “time first detected in plasma after dosing” value ([2]; after 960 mg single oral [14C]-acoziborole) of the same compound?
Answer: The value was 1 h.

Question: What about the AUC(0-t) ([2]; human, plasma, po, 960 mg, 960 mg single oral dose of acoziborole, N = 6, mean ± SD, read-out: AUC0–240h in plasma) of the same compound?
Answer: Its AUC(0-t) is 2520 µg·h/mL.

Question: And the AUC(0-t) ([2]; human, plasma, po, 960 mg, 960 mg single oral dose of acoziborole, N = 6, mean ± SD, read-out: AUC0–t in plasma)?
Answer: The AUC(0-t) was 5920 µg·h/mL.

Question: And the Tmax ([2]; human, plasma, po, 960 mg, 960 mg single oral dose of acoziborole, N = 6, mean ± SD, read-out: tmax in plasma)?
Answer: Its Tmax is 52 ± 9.8 h.

Question: What about the AUC(0-inf) ([2]; human, plasma, 960 mg single oral dose of acoziborole, N = 6, mean ± SD, read-out: AUC0–∞ in plasma) of the same compound?
Answer: The AUC(0-inf) was 6450 µg·h/mL.

Question: And the half-life ([2]; male, human, plasma, po, 960 mg, 960 mg single oral dose of acoziborole, N = 6, mean ± SD, read-out: t1/2 in plasma (converted))?
Answer: Its half-life is 272 h.

Question: What about the Tmax ([2]; male, human, plasma, po, 960 mg, 960 mg single oral dose, N = 6, read-out: individual tmax values in plasma) of the same compound?
Answer: Its Tmax is 48 to 72 h.

Question: What about the Tmax ([2]; male, human, plasma, po, 960 mg, 960 mg single oral dose, N = 6, read-out: median tmax in plasma) of the same compound?
Answer: The Tmax was 48 h.

Question: And the Cmax ([2]; male, human, plasma, 960 mg single oral dose of acoziborole, healthy males, N = 6, mean ± SD)?
Answer: Its Cmax is 14200 ± 1980 ng/mL.

Question: And the Vd/F ([2]; male, human, 960 mg single oral dose, plasma, N = 6, mean ± SD, read-out: Vz/F (apparent volume of distribution during the terminal phase))?
Answer: Its Vd/F is 59.1 ± 7.3 L.

Question: And the “metabolism by recombinant CYP2C8” value (CYP2C8)?
Answer: Its value is “metabolized by”.

Question: And the “safety and tolerability profile” value (gambiense HAT infection; 208 patients)?
Answer: The value was “acceptable safety and tolerability profile”.

Question: And the “treatment success rate at 18 months” value (gambiense HAT infection; 159 out of 162 patients, evaluable population)?
Answer: Its value is 98.1%.

Question: And the “treatment success rate at 18 months” value (gambiense HAT infection; late-stage patients, modified intention-to-treat population)?
Answer: The value was 95.2%.
